These results are taken from US20240175062A1, “LIPOXYGENASE-BASED RECOMBINANT MICROORGANISMS, AND METHOD FORPREPARING HYDROXY FATTY ACIDS AND SECONDARY FATTY ALCOHOLS USING SAME” (EWHA UNIVERSITY - INDUSTRY COLLABORATION FOUNDATION, priority 2021, published 2024).

The target in data set [1] is Enhygromyxa salina-derived lipoxygenase (EsLOX) (Enhygromyxa salina, UniProt A0A0C2CV93). Kind of data set: Enzymatic activity of purified EsLOX for long-chain unsaturated fatty acids (UV-vis spectrophotometer, 234 nm). In kind it is biochemical. The conditions noted are these: substrate of purified EsLOX, 50 mM EPPS (pH 8.5) buffer. Here is the method: The culture medium was centrifuged at 13,000×g at 4° C. for 30 minutes and washed twice with phosphate-buffered saline, and added with 50 mM monosodium phosphate (NaH2PO4), 300 mM sodium chloride, 10 mM imidazole, 0.1 mM protease inhibitor (phenylmethylsulfonyl fluoride), and 400 U lysozyme, and then the cell solution was lysed with a sonicator. The cell lysate was centrifuged at 13,000×g at 4° C. for 10 minutes, and then the pellet was removed to separate only a cell supernatant. The cell supernatant was flowed onto a resin packed with an Ni-NTA agarose resin (Qiagen). The protein bound to the resin was washed with a wash buffer (50 mM NaH2PO4, 300 mM NaCl, 20/30 mM imidazole), eluted with an elution buffer (50 mM NaH2PO4, 300 mM NaCl, 250 mM imidazole) to purify Enhygromyxa lipoxygenase. Thereafter, a sample containing the purified Enhygromyxa lipoxygenase was prepared by obtaining a concentrated protein solution using 30 kDa Amicon.
Then, the enzymatic activity of the enzyme sample was measured using a UV-vis spectrophotometer (234 nm). More specifically, as the linoleic acid dioxygenation reaction progressed, the rate of increase in absorbance of a product, conjugated diene, was measured using the spectrophotometer, and the reaction time was measured for each of 10 seconds up to 180 seconds.

Substrate in data set [2]: CCCCC/C=C\C/C=C\C/C=C\C/C=C\CCCC(=O)O
The data set can be described thus: cells, lysate or membranes named. The conditions noted are these: other: substrate of purified EsLOX, 234 nm, 50 mM EPPS (pH 8.5) buffer.

Like-named read-outs stand apart in the source and are kept apart here.

As usually defined, the Km is the substrate concentration at which the rate is half of its maximum. Take `CCCCC/C=C\C/C=C\CCCCCCCC(=O)O` [Linoleic acid, linoleic acid]: the Km in data set [1] (read-out: KM) amounted to 90 µM.

On to `CC/C=C\C/C=C\C/C=C\CCCCCCCC(=O)O` [α-Linolenic acid, α-linolenic acid], for which, in data set [1] (read-out: KM), the Km was 120 µM. Regarding `CCCCC/C=C\C/C=C\C/C=C\CCCCC(=O)O` [γ-Linolenic acid, γ-linolenic acid], in data set [1], the Michaelis-Menten constant (Km) stood at 130 µM.

B1: Enhygromyxa salina-derived lipoxygenase (EsLOX) (Enhygromyxa salina) (protein)
chain: MSNIPTLPQNDPRPEQRAQQLDKARETYKYADLLPPLAFCEGVPKPDTPSAAWLVTVGKVAAAVALNAVANRRAWKRGDHDEEDASFDVGGTSEEDQNEAGHNSFLARLENFDEEAVSFAPGDEPSVLDEVNERVAAILGAKPNRHVPPAQADDDDNGDDGDGDESFGVLDGNVSKDGPNGRPQSMDDYANLFRRITLPPIASTWKNDSAFAAYRVAGPNASMIQRITELPDNFAVTDAHYKQAMGEGDSLDAAKAEGRLFLADWKLIGETLVNNTYKGAQKTVYAPLALFAVPPGGGSLAPVAIQPGQTPSPTNKIYATQDGNDWLAAKSAVQVAEGNYHELVSHLGLTHLLLEPIVMATYRQLAQHHPIYMLLIPHFEGTLSINNSAATNLIAPGGAVDLIFAGTIESEHQLALAALKRHDFMRSGLPDTIEQRGVGDTSVLTDYPYRDDGLKIWANIERWVTAYVNNYYISEANVTQDTELQAWAAVLSKPFAEGGVSGFGPIDTRAALIFACTKVIFTASAEHSAVNFPQKDLMSYAPAITGAGWTAAPPSQGPLKDFQPPLELAELQAEFLYLLGGVHHTKLGFYNSNSFPYRAWFKDPKITAELLPAFQRDLAASEELIVAANATRTFKYTYMIPSTIPMSINI
The term kcat/Km denotes the turnover number divided by the Michaelis constant. As for B1, in data set [2], the Michaelis constant (Km) is 80 µM and the kcat/Km amounted to 290000 M⁻¹ s⁻¹.
